Experimental data taken from PubChem BioAssay AID192 (DTP/NCI, 2004).
Where “and” joins values, the source holds several entries; their conditions need not be identical. Equal entries are not always repeated. Inconclusive results and toxic doses are left out. The calls were made as follows: active = survival T/C of 150% or more; inactive = T/C below 125% in these data.

System: BDF1 mice, B16 melanoma ip, median survival T/C
Assay: NCI In Vivo Anticancer Drug Screen. Data for tumor model B16 Melanoma (intraperitoneal) in B6D2F1 (BDF1) mice
Conditions: endpoint: median survival time, higher = longer survival
Description: The antitumor activity of compounds was measured in mice bearing transplantable tumors. Survival or tumor size were measured and the results are expressed as the measurement made in the treated group (T) divided by the measurement made in the vehicle treated control group (C). The tumor model used in this assay is B16 Melanoma (intraperitoneal) in B6D2F1 (BDF1) mice

[1] = dose: 12.5 mg/kg/injection, schedule: Q01DX009 (ip), vehicle: Klucel (hydroxypropylcellulose) (HPC)
[2] = dose: 25.0 mg/kg/injection, schedule: Q01DX009 (ip), vehicle: Klucel (hydroxypropylcellulose) (HPC)
[3] = dose: 50.0 mg/kg/injection, schedule: Q01DX009 (ip), vehicle: Klucel (hydroxypropylcellulose) (HPC)
[4] = dose: 100.0 mg/kg/injection, schedule: Q01DX009 (ip), vehicle: Klucel (hydroxypropylcellulose) (HPC)
[5] = dose: 200.0 mg/kg/injection, schedule: Q01DX009 (ip), vehicle: Klucel (hydroxypropylcellulose) (HPC)
[6] = dose: 400.0 mg/kg/injection, schedule: Q01DX009 (ip), vehicle: Klucel (hydroxypropylcellulose) (HPC)
[7] = dose: 6.25 mg/kg/injection, schedule: Q01DX009 (ip), vehicle: saline with Tween-80
[8] = dose: 12.5 mg/kg/injection, schedule: Q01DX009 (ip), vehicle: saline with Tween-80
[9] = dose: 25.0 mg/kg/injection, schedule: Q01DX009 (ip), vehicle: saline with Tween-80
[10] = dose: 25.0 mg/kg/injection, schedule: Q04DX003 (ip), vehicle: Klucel (hydroxypropylcellulose) (HPC)
[11] = dose: 50.0 mg/kg/injection, schedule: Q01DX009 (ip), vehicle: saline with Tween-80
[12] = dose: 100.0 mg/kg/injection, schedule: Q01DX009 (ip), vehicle: saline with Tween-80
[13] = dose: 200.0 mg/kg/injection, schedule: Q01DX009 (ip), vehicle: saline with Tween-80

Measured: T/C

Nc1c(Cl)c(Cl)nc(C(=O)O)c1Cl
inactive: dose: 6.25 mg/kg/injection, schedule: Q01DX009 (ip), vehicle: Klucel (hydroxypropylcellulose) (HPC) 96 % of control | [1] 108 % of control | [2] 108 % of control | dose: 25.0 mg/kg/injection, schedule: Q02DX009 (ip), vehicle: Klucel (hydroxypropylcellulose) (HPC) 95 % of control | [3] 96 % of control | dose: 50.0 mg/kg/injection, schedule: Q02DX009 (ip), vehicle: Klucel (hydroxypropylcellulose) (HPC) 91 % of control | dose: 50.0 mg/kg/injection, schedule: Q02DX009 (ip), vehicle: other 95 % of control | [4] 102 % of control | dose: 100.0 mg/kg/injection, schedule: Q02DX009 (ip), vehicle: other 86 % of control | [5] 98 % of control

CP(=S)(c1ccccc1)P(C)(=S)c1ccccc1 (configuration not stated)
inactive: [5] 119 % of control

COc1cc(C2N(c3ccccc3)CCN2c2ccccc2)cc(OC)c1OC
inactive: [4] 106 % of control | [5] 103 % of control | [6] 96 % of control

CC[CH2][Pb]([CH2]CC)([CH2]CC)[O]C(=O)c1ccccc1
inactive: dose: 1.56 mg/kg/injection, schedule: Q01DX009 (ip), vehicle: Klucel (hydroxypropylcellulose) (HPC) 103 % of control | dose: 3.13 mg/kg/injection, schedule: Q01DX009 (ip), vehicle: Klucel (hydroxypropylcellulose) (HPC) 96 % of control

O=C1c2cc(Br)cc(Br)c2NCCCC1(Br)Br
inactive: dose: 75.0 mg/kg/injection, schedule: Q04DX003 (ip), vehicle: Klucel (hydroxypropylcellulose) (HPC) 102 % of control | dose: 150.0 mg/kg/injection, schedule: Q04DX003 (ip), vehicle: Klucel (hydroxypropylcellulose) (HPC) 95 % of control | dose: 300.0 mg/kg/injection, schedule: Q04DX003 (ip), vehicle: Klucel (hydroxypropylcellulose) (HPC) 96 % of control

CC12C=CC(=O)C=C1CCC1C2C(O)CC2(C)C1CCC2(O)C(=O)COC(=O)CCCc1ccc(N(CCCl)CCCl)cc1 (configuration not stated)
inactive: dose: 15.0 mg/kg/injection, schedule: Q01DX011 (ip), vehicle: saline 119 % of control

CC1=CC2=C(C=O)C(=O)[C@](C)(O)[C@@H](O)C2=CO1
inactive: [7] 119 % of control | [8] 108 % of control | [9] 122 % of control

CCCCCCCCCCCCCCCC(C)(C)O
inactive: [4] 100 % of control | [5] 100 % of control | [6] 86 % of control

CCCCCCCCCOCCOCCOCCN
inactive: dose: 12.5 mg/kg/injection, schedule: Q04DX003 (ip), vehicle: Klucel (hydroxypropylcellulose) (HPC) 98 % of control | [10] 90 % of control

CC(C)(C)OC(=O)NC(Cc1ccc(OCc2c(Cl)cccc2Cl)cc1)C(=O)O (configuration not stated)
inactive: [9] 101 % of control | [11] 104 % of control | [12] 86 % of control

ClC1(c2ccccc2)c2ccc(Br)cc2-c2cc(Br)ccc21
inactive: [12] 89 % of control | [13] 92 % of control

C/C=C1\CN(C)[C@H]2Cc3c([nH]c4ccccc34)[C@@H](c3cc4[nH]c5c(c4cc3OC)CCN3C[C@H]4C[C@H](CC)[C@H]3[C@@]5(C(=O)OC)C4)C[C@H]1C2C(=O)OC (some centres not stated)
inactive: dose: 2.5 mg/kg/injection, schedule: Q01DX009 (ip), vehicle: suspension in saline 98 % of control | dose: 3.0 mg/kg/injection, schedule: Q01DX009 (ip), vehicle: saline with Tween-80 100 % of control | dose: 5.0 mg/kg/injection, schedule: Q01DX009 (ip), vehicle: suspension in saline 101 % of control | dose: 6.0 mg/kg/injection, schedule: Q01DX009 (ip), vehicle: saline with Tween-80 95 % of control | dose: 10.0 mg/kg/injection, schedule: Q01DX009 (ip), vehicle: suspension in saline 99 % of control | dose: 12.0 mg/kg/injection, schedule: Q01DX009 (ip), vehicle: saline with Tween-80 106 % of control | dose: 25.0 mg/kg/injection, schedule: Q04DX003 (ip), vehicle: saline with Tween-80 90 % of control | [12] 87 % of control

SCc1ccccn1
inactive: dose: 100.0 mg/kg/injection, schedule: Q01DX009 (ip), vehicle: saline 112 % of control | dose: 200.0 mg/kg/injection, schedule: Q01DX009 (ip), vehicle: saline 115 % of control | dose: 400.0 mg/kg/injection, schedule: Q01DX009 (ip), vehicle: saline 105 % of control

C=COC(=O)CCCCCCCCCCCCCCCCC
inactive: dose: 20.0 mg/kg/injection, schedule: Q01DX009 (ip), vehicle: Klucel (hydroxypropylcellulose) (HPC) 94 % of control | dose: 40.0 mg/kg/injection, schedule: Q01DX009 (ip), vehicle: Klucel (hydroxypropylcellulose) (HPC) 94 % of control | dose: 80.0 mg/kg/injection, schedule: Q01DX009 (ip), vehicle: Klucel (hydroxypropylcellulose) (HPC) 92 % of control

BrCc1ccc2c3c(ccc(CBr)c13)CC2
inactive: [1] 103 % of control | [2] 98 % of control | [3] 96 % of control | [11] 112 % of control | [4] 100 % of control | [12] 122 % of control | dose: 100.0 mg/kg/injection, schedule: Q04DX003 (ip), vehicle: saline with Tween-80 107 % of control | [13] 95 % of control | dose: 200.0 mg/kg/injection, schedule: Q04DX003 (ip), vehicle: saline with Tween-80 112 % of control | dose: 400.0 mg/kg/injection, schedule: Q04DX003 (ip), vehicle: saline with Tween-80 105 % of control

COc1cc2c(c(OC)c1OC)-c1ccc(OC)c(=O)cc1[C@@H](N)CC2
inactive: dose: 0.31 mg/kg/injection, schedule: Q01DX009 (ip), vehicle: saline 120 % of control | dose: 2.5 mg/kg/injection, schedule: Q01DX009 (ip), vehicle: Klucel (hydroxypropylcellulose) (HPC) 89 % of control | dose: 5.0 mg/kg/injection, schedule: Q01DX009 (ip), vehicle: Klucel (hydroxypropylcellulose) (HPC) 110 % of control

CN1CCC=C(CN2c3ccccc3Sc3ccccc32)C1
inactive: dose: 25.0 mg/kg/injection, schedule: Q01DX009 (ip), vehicle: saline 104 % of control | dose: 50.0 mg/kg/injection, schedule: Q01DX009 (ip), vehicle: saline 106 % of control

CCN(CC)N=Nc1ccccc1-c1nc(N)c2ccccc2n1
inactive: [10] 94 % of control | dose: 50.0 mg/kg/injection, schedule: Q04DX003 (ip), vehicle: Klucel (hydroxypropylcellulose) (HPC) 109 % of control | dose: 100.0 mg/kg/injection, schedule: Q04DX003 (ip), vehicle: Klucel (hydroxypropylcellulose) (HPC) 96 % of control | dose: 200.0 mg/kg/injection, schedule: Q04DX003 (ip), vehicle: Klucel (hydroxypropylcellulose) (HPC) 103 % of control

CCCCn1cnc2c(=S)nc[nH]c21
inactive: [7] 93 % of control | [8] 89 % of control | [9] 95 % of control | [11] 97 % of control

CC(Cc1ccccc1)NCCc1c2ccccc2nc2ccccc12 (configuration not stated)
inactive: [1] 92 % of control | [2] 86 % of control and 100 % of control | [3] 90 % of control and 92 % of control | [5] 92 % of control

CCOc1ccccc1NC(=O)Nc1cccc(Cl)c1
inactive: [4] 106 % of control | [5] 96 % of control | [6] 106 % of control
